Key:
[1] = tested on: ErbB3 in Hep3Bx cells; assay: siRNA silencing of ErbB3 (FIG. 12a); type: cell-based
Method: (§1) 5 μL of 20 μM siRNA is mixed with 1 μL of the transfection reagent and 100 μL of the medium without FBS. 30 minutes later, the siRNA-containing mixture is added into the medium-discarded Hep3Bx cells with a final volume of 1 mL. After incubating for 5 hours, the FBS containing medium as added to a final volume of 2 mL. The following experiment is performed 4-day posttransfection.
(§2) ErbB3-specific siRNA with a sequence as set forth in SEQ ID NO: 13 is used to silence expression of ErbB3 in the Hep3Bx cells. The control siRNA with a sequence as set forth in SEQ ID NO: 10 is used as a control.

[2] = tested on: ErbB3-transfected Hep3B cells (group K2); assay: cell numbers by light and fluorescence microscopy (FIG. 11b-d); type: cell-based; settings: 120 hours
Source text: That is, pDSRed vector is used as a control (group K1) and the ErbB3 protein-expressing plasmid constructed with primers with sequences set forth in SEQ ID NOs. 11 and 12 is used as the group K2.
Cell numbers of the vector- or ErbB3-transfected Hep3B cells are monitored using a fluorescence microscope with an excitation wavelength of 535 nm. […] The cell number of the lapatinib-treated vector-transfected Hep3B cells divides by the cell number of the DMSO-treated vector-transfected Hep3B cells and the cell number of the lapatinib-treated ErbB3-transfected Hep3B cells divides by the cell number of the DMSO-treated ErbB3-transfected Hep3B cells. As a result, after lapatinib treatment for 120 hours, the quantitative cell viability of ErbB3-transfected Hep3B cells is merely smaller than 20%. That is, ErbB3 transfection induces […] of Hep3B cells to lapatinib.

[3] = tested on: Hep3B cells; assay: Western blotting of cleaved PARP and cleaved Caspase-3; type: cell-based
Method: (§3) Western blotting is performed with anti-PARP antibody (1: 1,000, purchased from Cell Signaling) and anti-Caspase-3 antibody (1: 1,000, purchased from Cell Signaling). The anti-Actin antibody (1: 10,000, purchased from Sigma) is used as an internal control.

[4] = tested on: Hep3Bx cells; assay: as above; type: cell-based; settings: higher concentration
Method: as §3

[5] = tested on: ErbB3-specific siRNA-treated Hep3Bx cells; assay: crystal violet staining (FIG. 12b); type: cell-based; settings: ErbB3-specific siRNA-treated Hep3Bx cells compared to control siRNA-treated, 120 hours
Method: as §1, §2

[6] = tested on: vector-transfected Hep3B cells (group D1); assay: cell viability after lapatinib treatment (FIG. 4b); type: cell-based
[7] = tested on: myc-HBx-transfected Hep3B cells (group D2); assay: cell viability after lapatinib treatment (FIG. 4b); type: cell-based
Source text: (§4) In the trial (D) and (E), HBx is introduced into the Hep3B cells via transient transfection and virus transduction, respectively. Cytotoxicity of lapatinib to the HBx-transfected or HBx-virus transduced Hep3B cells is further monitored by the crystal violet assay.
That is, pcDNA6/myc-His A vector is used as a control (group D1) and the C-terminal myc-tagged HBx plasmid expressing myc-HBx expression protein constructed with primers with sequences set forth in SEQ ID NOs. 5 and 6 is used as the group D2.
(§5) The plasmids are transfected into the Hep3B cells as the following procedure: 1 μg of the plasmids are mixed with 1 μL of TransIT2020 transfection reagent, and the mixture is incubated with the fresh medium without FBS at room temperature for 30 minutes to obtain the vector-transfected Hep3B cells (group D1) and the myc-HBx-transfected Hep3B cells (group D2).

[8] = tested on: liver cancers; settings: clinical trial; cited from earlier work
[9] = tested on: vector-transfected Hep3B cells (group D1); assay: crystal violet staining (FIG. 4c); type: cell-based; settings: 1 μM, 120 hours
[10] = tested on: vector-virus transduced Hep3B cells (group E1); assay: cell viability after lapatinib treatment (FIG. 5b); type: cell-based
Source text: as §4
(§6) That is, pDEST-V5 vector is used as a control (group E1) and the HBx plasmid expressing HBx expression protein constructed with primers with sequences set forth in SEQ ID NOs. 7 and 8 is used as the group E2.
(§7) The plasmids are virus transduced into the Hep3B cells as the following procedure: the Hep3B cells are inoculated in 3.5-cm petri dishes with concentration of 2×10^5 cells per petri dish. After incubating for 24 hours, virus with 100 MOI is used to transduce the plasmids into the cultured Hep3B cells. Fresh media are replaced after 16 hours and the following experiments are performed 4 days later.

[11] = tested on: HBx-virus transduced Hep3B cells (group E2); assay: cell viability after lapatinib treatment (FIG. 5b); type: cell-based
Source text: as §4, §6, §7

[12] = tested on: Hep3B cells; assay: MTT cytotoxicity assay; type: cell-based; settings: 72 hours, 0-10 μM
Method: (§8) In the following trials, liver cancer cells including Hep3B, Hep3Bx, HepG2 and HepG2x cells are used. The Hep3Bx and HepG2x cells, derived from the Hep3B and HepG2 cells, respectively, are cell lines constitutively expressing HBx. All of the liver cancer cells are incubated in a 37° C. incubator. DME/F12 with 10% FBS is used as media for incubating the cell lines. Moreover, lapatinib is dissolved in DMSO with different concentration.
(§9) Cytotoxicity of lapatinib to the Hep3B and Hep3Bx cells is monitored using the MTT 3-(4,5-dimethylthiazol-2-yl)-2,5-diphenyltetrazolium bromide assay. First, the Hep3B and Hep3Bx cells are inoculated in a 96-well pate with 5,000-10,000 cells per well. After incubating at 37° C. for 24 hours, 0, 0.1, 0.5, 1, 5 and 10 μM of lapatinib is added into the medium for further incubation at 37° C. for 72 hours, respectively. 0.025 mL of MTT solution ([…] of MTT dissolved in 1 mL of 1×PBS) is added into 0.1 mL of the medium, followed by incubating at 37° C. for 4 hours. Succinate dehydrogenase, bound to the inner mitochondrial membrane of the living cells, is capable of reducing MTT to its insoluble formazan, which has a purple color. Therefore, after removing the supernatants, 0.1 mL of DMSO is added to dissolve the insoluble formazan into a colored solution.

[13] = tested on: Hep3Bx cells; assay: MTT cytotoxicity assay; type: cell-based; settings: 72 hours, 0-10 μM
Method: as §8, §9

[14] = tested on: Hep3B cells; assay: sub-G1 phase arrest by PI flow cytometry; type: cell-based; settings: 120 hours, different concentrations
Method: (§10) The Hep3B and Hep3Bx cells are inoculated in 3.5-cm petri dishes, respectively. After the Hep3B and Hep3Bx cells cover 50 to 60% of the 3.5-cm petri dishes, 3 mL of fresh medium with different concentrations of lapatinib is added, followed by incubation at 37° C. for 120 hours. The cultured Hep3B and Hep3Bx cells are resuspended in 3 mL of 75% ethanol in a concentration of 1.5×10^5 cells per mL and fixed at −20° C. for at least 2 hours. Finally, the fixed Hep3B and Hep3Bx cells are mixed with 0.5 mL of PI buffer at 37° C. for 30 minutes. The sub-G1 phase arresting cells with a DNA content less than 2n, which are usually the result of apoptotic DNA fragmentation are detected and measured by a sub-G1 peak in the fluorescence histogram of flow cytometry.

[15] = tested on: Hep3Bx cells; assay: sub-G1 phase arrest by PI flow cytometry; type: cell-based; settings: 120 hours, different concentrations
Method: as §10

[16] = tested on: myc-HBx-transfected Hep3B cells (group D2); assay: crystal violet staining (FIG. 4c); type: cell-based; settings: 1 μM, 120 hours
Method: as §5
Moreover, 1×10^5 cells of the vector-transfected Hep3B cells (group D1) and the myc-HBx-transfected Hep3B cells (group D2) are further treated with 1 μM of lapatinib. Also, DMSO is used to treat the vector-transfected Hep3B cells (group D1) and the myc-HBx-transfected Hep3B cells (group D2) as a solvent control. After culturing at 37° C. for 120 hours, the supernatants are removed and 10 mg/mL of crystal violet solution dissolving in 30% ethanol is added to the cultured Hep3B cells for 15 to 30 minutes. Crystal violet solution can stain the nuclei of the living cells adhering to the petri dishes.

[17] = tested on: HBx-minus mutant-transfected HepG2 cells (group F3); assay: crystal violet assay (FIG. 6c); settings: 1 μM, 120 hours
Source text: (§11) The genome of HBV contains 4 known genes including genes C, X, P and S. To define the role of HBx in cytotoxicity of lapatinib to liver cancer, the plasmids being thankful presents from Dr. Seishi Murakami (J. Virology, 79 (9): 5548-5556, 2005) are used to transiently transfect into the Hep3B cells in the trial (F). […] The plasmid containing an ochre termination signal (CAA to UAA) after codon 7 (at codon 8) in the HBx ORF is used as the group F3. The plasmids are transiently transfected into the Hep3B and HepG2 cells as described above.
(§12) The transfected Hep3B and HepG2 cells are treated with DMSO or 1 μM of lapatinib for 120 hours and the DMSO- or lapatinib-treated cells are analyzed by crystal violet assay.

[18] = tested on: HBx-minus mutant-transfected Hep3B cells (group F3); assay: crystal violet assay (FIG. 6c); settings: 1 μM, 120 hours
Source text: as §11, §12

[19] = tested on: wild-type HBV genome-transfected Hep3B cells (group F2); assay: crystal violet assay (FIG. 6c); settings: 1 μM, 120 hours
Source text: as §11, §12

[20] = tested on: vector-transfected HepG2 cells (group F1); assay: crystal violet assay (FIG. 6c); settings: 1 μM, 120 hours
Source text: as §11, §12

[21] = tested on: vector-transfected Hep3B cells (group F1); assay: crystal violet assay (FIG. 6c); settings: 1 μM, 120 hours
Source text: as §11, §12

[22] = tested on: wild-type HBV genome-transfected HepG2 cells (group F2); assay: crystal violet assay (FIG. 6c); settings: 1 μM, 120 hours
Source text: as §11, §12

[23] = tested on: HBx in Hep3Bx cells; assay: siRNA silencing of HBx, Western blotting (FIG. 9e); type: cell-based; settings: 4-day posttransfection
Method: HBx-specific siRNA with a sequence as set forth in SEQ ID NO: 9 and a control siRNA with a sequence as set forth in SEQ ID NO: 10 are used to further confirm the relationship between HBx and ErbB3 in the Hep3Bx cells.
as §1

ErbB3-specific siRNA: ErbB3-specific siRNA with a sequence as set forth in SEQ ID NO: 13 (GCGATGCTGAGAACCAATA; listed as DNA, chemistry not given here)
mRNA level of ErbB3 [1]: decreases mRNA level of ErbB3 | protein level of ErbB3 [1]: decreased protein level of ErbB3

CS(=O)(=O)CCNCc1ccc(-c2ccc3ncnc(Nc4ccc(OCc5cccc(F)c5)c(Cl)c4)c3c2)o1 [lapatinib]
cell numbers (light microscopy) ([2]; ErbB3-transfected Hep3B cells (group K2), in comparison to vector-transfected cells): reduction of cell numbers | quantitative cell viability ([2]; ErbB3-transfected Hep3B cells, lapatinib-treated cell number divided by DMSO-treated cell number, fluorescence microscope): smaller than 20% | level of cleaved PARP and cleaved Caspase-3 [3]: does not increase the level of cleaved PARP and cleaved Caspase-3 | level of cleaved PARP and cleaved Caspase-3 [4]: higher level of cleaved PARP and cleaved Caspase-3 | tolerance to lapatinib (crystal violet staining) [5]: intolerance to lapatinib | concentration at which lapatinib shows cytotoxicity [6]: 5000 nM | concentration at which lapatinib shows cytotoxicity [7]: 1000 nM | effectiveness in patients with liver cancers [8]: effective for only part of patients with liver cancers | cytotoxicity (crystal violet staining) [9]: slight cytotoxicity | cytotoxicity [10]: no cytotoxicity | cells survival [11]: about 60% | cytotoxicity [11]: significant cytotoxicity | lapatinib concentration at which cells show intolerance [12]: more than 5 μM | lapatinib concentration at which cells show intolerance [13]: more than 0.1 μM | sub-G1 phase arrest [14]: does not trigger sub-G1 phase arrest | sub-G1 phase arrest [15]: the higher the treating concentration is, the more sub-G1 phase arresting cells are observed | cytotoxicity (crystal violet staining) [16]: significant cytotoxicity | cytotoxicity (crystal violet assay) [17]: slight cytotoxicity | cytotoxicity (crystal violet assay) [18]: no cytotoxicity | cytotoxicity (crystal violet assay) [19]: obvious cytotoxicity | cytotoxicity (crystal violet assay) [20]: slight cytotoxicity | cytotoxicity (crystal violet assay) [21]: no cytotoxicity | cytotoxicity (crystal violet assay) [22]: significant cytotoxicity

HBx-specific siRNA: HBx-specific siRNA with a sequence as set forth in SEQ ID NO: 9 (GGTTAAAGGTCTTTGTATT; listed as DNA, chemistry not given here)
protein level of ErbB3 [23]: decreased protein level of ErbB3 | protein level of HBx [23]: decreases protein level of HBx

— patent publication US9790563B2, “Method for treating liver cancer” (priority 2014, dated 2017)
